Experimental data reported in patent US20130158063A1, “Compounds, Compositions and Methods Related to PPAR Antagonists” (GEORGETOWN UNIVERSITY, priority 2010, published 2013).

How the values were obtained:
PPARδ [1] = experiment: PPAR reporter assay in 293T cells, PPARδ (agonist GW501516); type: cell-based; conditions: 1 μM agonist GW501516
PPARα [2] = target: T1, PPARα (Homo sapiens, UniProt Q07869); experiment: Fluorescent Polarization (FP) binding assay with corepressor peptides, PPARα; conditions: Nb = no binding
T1 construct: purchased Cayman Chemicals
T1 sequence (Q07869 239-466 limits assumed): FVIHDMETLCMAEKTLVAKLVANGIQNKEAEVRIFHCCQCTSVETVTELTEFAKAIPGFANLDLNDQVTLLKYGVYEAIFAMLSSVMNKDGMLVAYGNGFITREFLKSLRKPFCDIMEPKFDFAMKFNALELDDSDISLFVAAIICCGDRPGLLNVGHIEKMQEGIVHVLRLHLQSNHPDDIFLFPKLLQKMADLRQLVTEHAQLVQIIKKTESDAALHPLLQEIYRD
Method: (§1) For PPARγ screening, a fluorescent ligand supplied by Cayman Chemicals was also used. All compounds were dissolved in DMSO as 10 mM stock solutions and the final DMSO content in the assay was <1%. A TECAN Ultra 485 multi-functional microplate reader and GraphPad prism 4 software were used for measurements and analysis, respectively.
(§2) PPAR antagonists are expected to enhance the affinities of the corepressor peptides, and therefore, FP should increase as the compound concentration increases. Agonists would be expected to weaken the affinity of the same co-repressor peptide. Although this effect occurs for PPARγ, the dissociation of corepressor peptides varies for PPARα and PPARδ due to altered presentations of the overlapping coactivator/corepressor binding surfaces (Stanley T. B. et al. Biochemistry 42:9278-87, 2003). Compounds were screened initially against PPARγ and PPARδ at 1 and 100 μM. If binding was observed, titration experiments from 10 nM to 100 μM were carried out in triplicate with all three PPARs. […] For screening, either enhancement or weakening of FP was considered active.
(§3) Virtual screening for PPARγ was conducted against 56,000 compounds from the Maybridge library that targeted the ligand binding domain (LBD) of PPARγ, and 10 conformations of each compound were docked to the LBD using Autdock4 software (Scripps Institute). Sixty of the top ranked compounds were ordered from Maybridge, and 58 were available for evaluation. Fluorescent Polarization (FP) assays were established with the tagged co-repressor peptides NCoR1 and SMRT, the recombinant PPARα and PPARγ ligand-binding domains and full-length PPARδ. […] Sd-107 and its analogs are disclosed herein. The chemical structure is shown below.

PPARγ [3] = target: T2, PPARγ (Homo sapiens, UniProt P37231); experiment: Fluorescent Polarization (FP) binding assay with corepressor peptides, PPARγ; conditions: for Binding assay EC50, γ / EC50: FP assay, Nb = no binding; for Competition in FPA of PPARγ with fluorescent labeled NCoR peptide probe: FIG. 17, YL-1-80 analogs; for EC50: read-out: Binding assay EC50, γ
T2 construct: purchased Cayman Chemicals
T2 sequence (P37231 238-503 limits assumed): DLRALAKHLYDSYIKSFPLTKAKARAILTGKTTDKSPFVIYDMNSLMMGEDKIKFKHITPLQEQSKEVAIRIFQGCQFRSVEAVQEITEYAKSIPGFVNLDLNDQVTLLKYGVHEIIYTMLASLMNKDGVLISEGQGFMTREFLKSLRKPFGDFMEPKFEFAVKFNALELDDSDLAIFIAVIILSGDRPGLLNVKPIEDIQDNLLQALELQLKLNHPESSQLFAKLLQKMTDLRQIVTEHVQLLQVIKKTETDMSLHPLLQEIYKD
Method: as §1, §2, §3

PPARδ [4] = target: T3, PPARδ (Homo sapiens, UniProt Q03181); experiment: Fluorescent Polarization (FP) binding assay with corepressor peptides, PPARδ; conditions: Nb = no binding
T3 construct: purchased Cayman Chemicals
T3 sequence (Q03181 1-441): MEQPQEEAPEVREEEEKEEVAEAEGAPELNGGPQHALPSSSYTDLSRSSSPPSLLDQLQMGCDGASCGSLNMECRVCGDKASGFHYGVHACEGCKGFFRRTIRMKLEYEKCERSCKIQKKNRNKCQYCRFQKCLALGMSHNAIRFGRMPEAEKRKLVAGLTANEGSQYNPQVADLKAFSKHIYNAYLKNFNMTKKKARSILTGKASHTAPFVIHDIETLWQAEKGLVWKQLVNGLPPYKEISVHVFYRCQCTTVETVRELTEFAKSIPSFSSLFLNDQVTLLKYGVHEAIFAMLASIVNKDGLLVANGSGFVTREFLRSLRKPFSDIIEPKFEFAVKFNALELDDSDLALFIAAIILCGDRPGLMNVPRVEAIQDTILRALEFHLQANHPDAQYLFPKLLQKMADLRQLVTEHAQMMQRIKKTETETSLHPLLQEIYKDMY
Method: as §1, §2, §3

PPARα [5] = experiment: PPAR reporter assay in 293T cells, PPARα (agonist WY14643); type: cell-based; conditions: 1 μM agonist WY14643
PPARγ [6] = target: T4, PPARγ (Mus musculus, UniProt P37238); experiment: PPAR reporter assay in 293T cells, PPARγ (agonist GW7845); type: cell-based; conditions: for inhibition at 1 µM / inhibition at 10 µM / inhibition at 25 µM / inhibition at 2.5 µM: HEK-293T, 1 μM agonist GW7845, 293T cells, read-out: Reporter assay (% inhibition), γ; for inhibition at 1 µM: 1 μM compound; for inhibition at 10 µM: 10 μM compound; for inhibition at 25 µM: 25 μM compound; for inhibition at 2.5 µM: 2.5 μM compound
T4 construct: expressed in transfected cells; host or cells: 293T cells
T4 sequence (P37238 1-505): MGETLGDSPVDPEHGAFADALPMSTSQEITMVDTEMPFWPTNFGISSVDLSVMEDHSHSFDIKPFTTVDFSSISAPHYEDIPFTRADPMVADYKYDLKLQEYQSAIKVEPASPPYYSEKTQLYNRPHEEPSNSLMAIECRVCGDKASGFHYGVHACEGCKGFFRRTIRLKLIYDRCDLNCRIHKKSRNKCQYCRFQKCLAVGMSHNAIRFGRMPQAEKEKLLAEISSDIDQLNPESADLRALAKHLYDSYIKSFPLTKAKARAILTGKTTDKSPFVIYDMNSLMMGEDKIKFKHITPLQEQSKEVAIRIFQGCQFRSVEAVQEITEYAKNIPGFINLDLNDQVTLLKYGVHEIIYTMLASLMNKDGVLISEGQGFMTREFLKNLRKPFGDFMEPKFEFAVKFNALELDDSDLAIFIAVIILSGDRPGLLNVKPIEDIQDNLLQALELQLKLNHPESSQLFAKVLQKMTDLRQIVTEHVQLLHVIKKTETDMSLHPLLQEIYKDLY

PPARα, PPARγ, PPARδ = experiment: PPAR reporter assays, isotype profile over the three PPARs; conditions: for PPAR inhibitor type (Table 1): from reporter data; for PPAR isotype selectivity in reporter assays: inhibition of activation by 1 μM agonist

| Binding assay EC50, α (PPARα [2]) | Binding assay EC50, δ (PPARδ [4]) | inhibition at 1 µM (PPARγ [6]) | inhibition at 10 µM (PPARγ [6]) | inhibition at 25 µM (PPARγ [6]) | EC50 (PPARγ [3]) | SMILES | Reporter assay (% inhibition), δ (PPARδ [1]; 1 μM compound) | Reporter assay (% inhibition), δ (PPARδ [1]; 10 μM compound) | Reporter assay (% inhibition), δ (PPARδ [1]; 25 μM compound) | Reporter assay (% inhibition), α (PPARα [5]; 1 μM compound) | Reporter assay (% inhibition), α (PPARα [5]; 10 μM compound) | Reporter assay (% inhibition), α (PPARα [5]; 25 μM compound) | PPAR inhibitor type (Table 1) (PPARα, PPARγ, PPARδ) | other results |
| --- | --- | --- | --- | --- | --- | --- | --- | --- | --- | --- | --- | --- | --- | --- |
| α nb γ nb | δ nb | 0% | 25% | 50% |  | CC(C)(C)c1ccc(C(=O)N(N)S(=O)(=O)c2ccc(C(C)(C)C)cc2)cc1 [YL-1-69] | 0% | 10% | 20% | 0% | 15% | 20% | Pan inhibitor | Binding assay EC50, γ (PPARγ [3]): α nb γ nb |
| α nb γ nb | δ nb | 0% | 50% | 75% |  | CC(C)(C)c1ccc(S(=O)(=O)N(C(=O)c2ccc(Cl)cc2)N(C(=O)c2ccc(Cl)cc2)C(=O)c2ccc(Cl)cc2)cc1 [YL-1-68-1] | 0% | 0% | 47% | 0% | 0% | 17% | PPARγ/δ inhibitor | Reporter assay (% inhibition), δ (PPARδ [1]; 2.5 μM compound): 0%; Binding assay EC50, γ (PPARγ [3]): α nb γ nb; inhibition at 2.5 µM (PPARγ [6]): 16% |
|  | δ nb | 0% | 0% | 37% | 110 nM | CC(C)(C)c1ccc(S(=O)(=O)N(NC(=O)c2ccc(Cl)nc2)C(=O)c2ccc(Cl)nc2)cc1 [YL-1-83] | 0% | 0% | 0% | 0% | 0% | 0% | PPARγ inhibitor | EC50 (PPARα [2]; read-out: Binding assay EC50, α): 1300 nM; Competition in FPA of PPARγ with fluorescent labeled NCoR peptide probe (PPARγ [3]): best competition; PPARγ antagonism (PPARγ [6]; binding and reporter screening): weak PPARγ antagonist; PPAR isotype selectivity in reporter assays (PPARα, PPARγ, PPARδ): more selective for PPARγ |
| nb | δ nb | 0% | 50% | 75% | 40800 nM | COc1ccc(S(=O)(=O)N(C(=O)c2ccc(Cl)cc2)N(C(=O)c2ccc(Cl)cc2)C(=O)c2ccc(Cl)cc2)cc1 [YL-1-38-1] | 0% | 0% | 47% | 0% | 15% | 40% | Pan inhibitor | Reporter assay (% inhibition), δ (PPARδ [1]; 2.5 μM compound): 0%; Effect on FP of corepressor peptide, PPARγ (PPARγ [3]; FIG. 3): weakened the affinity of the peptide to PPARγ; Selectivity of binding in FP assay (PPARγ [3]; titration with all three PPARs): selective binding to PPARγ; Reporter assay (% inhibition), α (PPARα [5]; 2.5 μM compound): 0%; inhibition at 2.5 µM (PPARγ [6]): 16% |
| nb | δ nb | 0% | 0% | 10% | 22300 nM | CC(C)(C)c1ccc(S(=O)(=O)N(NC(=O)c2ccc(O)cc2)C(=O)c2ccc(O)cc2)cc1 [YL-1-88] | 0% | 14% | 40% | 0% | 0% | 0% | PPARδ inhibitor |  |
| nb | δ nb | 19% | 28% | 79% | 410 nM | CC(=O)Oc1ccc(C(=O)NN(C(=O)c2ccc(OC(C)=O)cc2)S(=O)(=O)c2ccc(C(C)(C)C)cc2)cc1 [YL-1-87] | δ 18% | 23% | 60% | 0% | 0% | 52% | Pan inhibitor |  |
| nb | δ nb | 0% | 40% | 85% | 560 nM | O=C1NN(c2cccc(F)c2)C(=O)/C1=C\c1ccc(-c2ccc(S(=O)(=O)Nc3ncco3)cc2)o1 [Sd-107-10] | 0% | 0% | 10% | 0% | 0% | 20% | PPARγ inhibitor | PPAR isotype selectivity in reporter assays (PPARα, PPARγ, PPARδ): greatest selectivity for PPARγ |
| nb | δ nb | 18% | 58% | 79% | 9200 nM | CC(C)(C)c1ccc(C(=O)N(NC(=O)c2ccc(Cl)cc2)S(=O)(=O)c2ccc(C(C)(C)C)cc2)cc1 [YL-1-80] | δ 12% | 31% | 64% | 0% | 24% | 53% | Pan inhibitor | Competition in FPA of PPARγ with fluorescent labeled NCoR peptide probe (PPARγ [3]): best competition |
